Reference: patent publication US20140080903A1, “APPLICATION OF ALPHA-MANGOSTIN IN PREPARATION OF MEDICAMENTS FOR ALZHEIMER'S DISEASE” (BOMAI LIMITED, priority 2011, published 2014)
Where two headings read alike, the source gives them in different places. Blank lines part the entries; values can stand above or below the compound they belong to.

Tests used:
Aβ = target: T1, Aβ (Homo sapiens, UniProt P05067); assay: Thioflavin-T fluorescence kinetics of Aβ aggregation; type: biochemical; details: inhibitor:Aβ 1:1, 37° C.; for incubation time at which Aβ enters into accumulation: Aβ itself 4 hours
T1 construct: purchased Sigma-Aldrich Corporation (China)
Method: Resveratrol, Curcumin and Propidium Iodide are the reported inhibitors on Aβ aggregation.
1 mg Aβ was dissolved in 500 μL HFIP, and put at room temperature for 120 minutes with intermittent shaking Then HFIP was dried by high pure nitrogen blowing and 100 μL DMSO was added to prepare an Aβ stock of 2.3 mM, which was stored at −20° C. DMSO was employed to dilute Aβ stock and 2 μL diluted solution was added to 16 μL PBS (0.215M, pH 8.0), which made a solution of Aβ at […], to which 2 μL α-Mangostin (25 μM) or other inhibitors, and blank solvent was added. Followed with incubation for 30 minutes, the mixture was added 80 μL Thioflavin-T(10 μM)/Glycine-NaOH (50 mM, pH8.5) and transferred to microplate for fluorescence intensity measurement. The parameters for measurement was set up as follow: instrument temperature of 37° C., shaking frequency of 240 rpm, radius of […], excitation wavelength of 446 nm, emission wavelength of 485 nm, bandwidth of 5 nm, and detection frequent of every 30 minute. Fluorescence intensity was recorded and statistically analyzed.

SAM-P8 mice = assay: Morris water maze test in SAM-P8 mice; type: in vivo; details: for distance: mid-dose group
Method: Female SAM-P8 mice of 8-month old were employed as the model animal in the invention. All of the mice experimental procedures strictly followed the Guide for the Care and Use of Laboratory Animals as adopted and promulgated by the National Institutes of Health, USA, including sterile rearing environment, temperature controlled between 23° C. and 25° C., humidity controlled at 55±5%, and an interval of twelve hours light.
The concentration and dose of α-Mangostin applied in the experiment were adjusted according to the different animal models. In molecular experiments, α-Mangostin was employed to calibrate the concentration of Aβ, prepared with the unit of molar concentration, and compared with the known Aβ aggregation inhibitor. In cellular experiments, α-Mangostin was also prepared with the unit of molar concentration, and provided in screening from the concentration of 50 pmol/L to 500nmol/L. In animal experiments, following the established practice, α-Mangostin was prepared with the unit of weight/animal weight, provided dosage range across three orders of magnitude of low dose (1 μg/kg), mid dose (10 μg/kg), high dose (100 μg/kg), and administrated orally (O.P., Solid granules).
SAM-P8 mice were weight and divided into five groups randomly, including the model group, low-dose (1 μg/kg) , mid-dose (10 μg/kg) , high-dose ([…]) groups and positive control group treated with resveratrol (10 mg/kg). SAM-R1 mice were used as normal control. Reagents were mixed in food and applied to mice from the 3rd day after grouping (enter 6 months age) to the end of the test. Normal control group and model group were administrated with the same amount of food.
Morris water maze test was carried out when SAM-P8 mice entered the age of 8 months. Water temperature in the experiment was controlled at 22±0.5° C. Mice were put into water with their faces towards the wall and backs towards water. The computer started automatically to record the trace and time (escape latency) of mice seeking the platform within 100 seconds. […] The tests were carried out twice every day, with an interval of 6 hours, and continued for 3 days. After place navigation test, the platform was removed. Mice were placed into water at a certain place of entry. The first time those mice reached the platform and the times that mice across the platform were recorded.

Aβ oligomer = target: T2, Aβ oligomer (Homo sapiens, UniProt P05067); assay: ELISA determination of Aβ oligomer (6E10/A11); type: biochemical
T2 construct: purchased Sigma-Aldrich Corporation (China)
Method: 1 mg Aβ was dissolved in 500 μL HFIP at room temperature, of which 100 μL was transferred into a clean centrifuge tube (1.5 mL), where 900 μL sterile deionized water was added. Followed with centrifugation, the supernatant was moved to another clean centrifuge tube (1.5 mL) and HFIP was dried with high pure nitrogen blowing. Then the solution was stirred at 500 rpm for 48 hours at 22° C., using a micro stir bar, to get the solution of Aβ oligomer (1 μM). In inhibition experiment, α-Mangostin was added into the Aβ oligomer solution to obtain the final concentrations of 5 μM, 2 μM, 1 μM, 0.5 μM and 0.2 μM, respectively, and followed with another 12 hours stirring at 500 rpm and 22° C.α-Mangostin can also be added before stirring with Aβ oligomer for 12 hours.
The incubated solution was applied into the 96-well microplate coated with 100 μL monoclonal anti-Aβ antibody (6E10). After incubation for 1 hour at 37° C., the wells were washed 3 times with washing buffer and 100 μL Oligomer-specific antibody (A11) was applied. After 5 times washing, 100 μL HRP-conjugated Goat anti-Rabbit IgG was applied. After another 5 times washing and 15 minutes colour developing, the optical density was recorded and statistically analyzed with plate reader.

primary neuronal cells = assay: high content assay of neuroprotective effect against Aβ oligomer; type: cell-based, SD rat; details: 50 nM α-Mangostin, 1 μM Aβ oligomer
Method: Mammalian neurons in the experiment were prepared from embryonic day 15 SD rat embryos. A medium specific for neurons was employed, including neurobasal, 2% B27 and 1% glutamine that were all commercial and used following the instructions of the manufacturer.
Embryonic day 15 SD rats are etherized and embryos were collected to a sterile dish with an anatomic buffer. Heads of the embryos were cut to a precooling dish with an anatomic buffer. A pair of straight forceps were inserted through eyes to fix the head, and another pincett was inserted along the head sagittal suture. The mening and skull were torn from front to back and to collect the brain. The hippocampus was peeled to the anatomic buffer in a precooling dish. The hippocampus was dissected by scissors disinfected with 75% alcohol. The minced tissues were collected into a marked 15 ml centrifuge tube and let them naturally precipitate to the bottom of the tube. The supernatant was discarded, and 2 mL 0.05% Trypsin was added. The tube was flipped several times and let it incubate for 5 minutes at 37° C. (shake evenly every two minutes). […]
The live cell dye stock in CELLOMICS ® Multiparameter Cytotoxicity 2 Kit was diluted to its working concentration. […] The fluorescence intensity was measured with high content plate reader and analyzed by the software of Cell Health Profiling Bio Application.

Histamine H1-receptor = Histamine H1-receptor (Homo sapiens, UniProt P35367); details: generally; cited from earlier work
[1] = 5 μM α-Mangostin, mole ratio to Aβ oligomer 5:1

T1 sequence (P05067 672-711 limits assumed): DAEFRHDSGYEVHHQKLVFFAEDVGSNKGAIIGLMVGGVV
T2 sequence (P05067 672-711 limits assumed): as above
Histamine H1-receptor, sequence (P35367 whole entry, species assumed): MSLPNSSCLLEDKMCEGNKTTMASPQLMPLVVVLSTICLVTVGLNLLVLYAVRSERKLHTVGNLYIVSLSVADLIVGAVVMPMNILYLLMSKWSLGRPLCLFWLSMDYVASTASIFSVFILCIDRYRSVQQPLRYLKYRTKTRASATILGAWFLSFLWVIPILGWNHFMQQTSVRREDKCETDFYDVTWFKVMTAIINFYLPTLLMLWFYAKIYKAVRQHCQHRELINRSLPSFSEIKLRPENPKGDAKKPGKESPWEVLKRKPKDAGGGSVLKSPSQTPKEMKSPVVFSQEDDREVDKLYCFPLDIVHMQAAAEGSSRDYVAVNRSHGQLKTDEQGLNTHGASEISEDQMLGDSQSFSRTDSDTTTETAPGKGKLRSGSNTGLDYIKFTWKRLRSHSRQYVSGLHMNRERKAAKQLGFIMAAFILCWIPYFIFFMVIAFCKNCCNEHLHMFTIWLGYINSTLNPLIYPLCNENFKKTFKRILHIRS

- incubation time at which Aβ enters into plateau (Aβ): 15 h
Compound: COc1cc(/C=C/C(=O)CC(=O)/C=C/c2ccc(O)c(OC)c2)ccc1O [curcumin]

- incubation time at which Aβ enters into plateau (Aβ): 15 h
Compound: Oc1ccc(C=Cc2cc(O)cc(O)c2)cc1 [resveratrol, reference compound]
- escape latency and distance compared with model group (SAM-P8 mice; from day 3, resveratrol 10 mg/kg positive control): notably decreased

- incubation time at which Aβ enters into plateau (Aβ): 10 h
- maximum fluorescence intensity compared with Aβ incubated itself (Aβ; within 24 hours): 10%
- incubation time at which Aβ enters into accumulation (Aβ): 6 h
Compound: CC[N+](C)(CC)CCC[n+]1c(-c2ccccc2)c2cc(N)ccc2c2ccc(N)cc21.[I-].[I-] [propidium iodide]

Compound: COc1c(O)cc2oc3cc(O)c(CC=C(C)C)c(O)c3c(=O)c2c1CC=C(C)C [α-Mangostin]
- inhibition of Aβ aggregation (Aβ; within 24 hours): almost completely inhibited
- incubation time at which Aβ enters into accumulation (Aβ): no accumulation phase appeared within 24 hours
- formation of Aβ oligomer inhibited to (Aβ oligomer; [1]): 14.15±2.86%
- formed Aβ oligomer disaggregated to (Aβ oligomer; [1]): 39.58±3.25%
- IC50 (Aβ oligomer; read-out: IC50 of disaggregation of formed Aβ oligomer): 1590 ± 820 nM
- IC50 (Aβ oligomer; read-out: IC50 of inhibition on Aβ oligomer formation): 1090 ± 540 nM
- mitochondrial membrane potential (primary neuronal cells; model 70.25±6.97%): 105.25±5.84%
- cell membrane permeability of neuronal cells (primary neuronal cells; model 173.75±6.82%): 107.75±9.39%
- working concentration as Histamine H1-receptor antagonist (Histamine H1-receptor): higher than 10^−6 mol/L
- escape latency (SAM-P8 mice; day 2, mid-dose group 10 m/kg, oral in food, model 72.17±10.09 s): 46.16 ± 5.51 s
- escape latency (SAM-P8 mice; from day 3, first value, mid-dose group 10 μg/kg, model 55.66±5.51 s): 40.02 ± 4.16 s
- distance (SAM-P8 mice; from day 3, first value, model 773.06±65.54): 438.78±46.02 cm
- escape latency (SAM-P8 mice; from day 3, second value, mid-dose group 10 μg/kg, model 39.93±4.12 s): 19.05 ± 3.27 s
- distance (SAM-P8 mice; from day 3, second value, model 543.13±56.72): 223.15±31.29 cm
